Our source for the EC50 and CC50 values is US20190375708A1 (VenatoRx Pharmaceuticals, Inc., priority 2018, published 2019).

Molecules are shown by their SMILES.

The subject of data set [1] is HBV replication in HepAD38 cells. The experiment in a line: Anti-HBV replication assay in HepAD38 cells (QPCR of extracellular HBV DNA). The format is cell-based, HBV (genotype D, serotype ayw). The following applies: Hepatitis B virus, 168 h, 7 days incubation, extracellular HBV DNA by QPCR, read-out: Anti-HBV EC50. The method in brief:
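Tet-off HepAD38, 7-day compound exposure ([…], 1 log10 steps, DMSO vehicle), 37 °C. Extracellular HBV DNA by QPCR, copies/mL via standard curve, % inhibition vs vehicle, EC50 by 4-parameter regression. Entecavir as positive control.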

Data set [2] in a line: In vitro cytotoxicity assay (MTT cell viability) in HepG2 cells. The settings on record: human. Type of data set: cell-based, human. Summed up:
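HepG2 seeded overnight, then 7-day compound exposure (30 μM–1.0 nM, half-log steps), 37 °C. MTT 3-4 h, DMSO solubilization, A492. % of vehicle → CC50, 4-PL fit.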

For `Cc1cc(NC(=O)c2c(Cl)c(C(=O)C(=O)NCC(C)(C)O)n3c2CCC3)cnc1F` [Example 578, 6-chloro-N-(6-fluoro-5-methylpyridin-3-yl)-5-(2-((2-hydroxy-2-methylpropyl)amino)-2-oxoacetyl)-2,3-dihydro-1H-pyrrolizine-7-carboxamide], in data set [1], the EC50 (usually the midpoint of the concentration-response curve) is 500 to 1000 nM. Moreover, the CC50 (as a rule, the concentration at which the toxic effect on the cells reaches its halfway point) at 7 days in data set [2] was above 30000 nM.
The like results for `Cc1cc(NC(=O)c2c(Cl)c(C(=O)C(=O)NC3(CO)CC(F)(F)C3)n3c2CCC3)cnc1F` [Example 579, 6-chloro-5-(2-((3,3-difluoro-1-(hydroxymethyl)cyclobutyl)amino)-2-oxoacetyl)-N-(6-fluoro-5-methylpyridin-3-yl)-2,3-dihydro-1H-pyrrolizine-7-carboxamide] were, in that order, 500 to 1000 nM and above 30000 nM.
As for `O=C(NC1(CO)CC(F)(F)C1)C(=O)c1c(Cl)c(C(=O)Nc2ccc(F)c(Cl)c2)c2n1CCC2` [Example 580, 6-chloro-N-(3-chloro-4-fluorophenyl)-5-(2-((3,3-difluoro-1-(hydroxymethyl)cyclobutyl)amino)-2-oxoacetyl)-2,3-dihydro-1H-pyrrolizine-7-carboxamide], the EC50 in data set [1] is below 50 nM. Further, the 50% cytotoxic concentration (CC50) at 7 days in data set [2] was in the range of 5000 to 30000 nM.
The like results for `O=C(NC1(CO)CC(F)(F)C1)C(=O)c1c(Cl)c(C(=O)Nc2ccc(F)c(F)c2)c2n1CCC2` [Example 581, 6-chloro-5-(2-((3,3-difluoro-1-(hydroxymethyl)cyclobutyl)amino)-2-oxoacetyl)-N-(3,4-difluorophenyl)-2,3-dihydro-1H-pyrrolizine-7-carboxamide] were, in that order, below 50 nM and 5000 to 30000 nM.
For `CC(C)(C)NC(=O)C(=O)c1cc(C(=O)Nc2ccc(F)c(C#N)c2)c2n1CCOC2` [Example 582, 6-(2-(tert-butylamino)-2-oxoacetyl)-N-(3-cyano-4-fluorophenyl)-3,4-dihydro-1H-pyrrolo[2,1-c][1,4]oxazine-8-carboxamide], the EC50 in data set [1] was above 1000 nM. The molecule also displayed a CC50 at 7 days in data set [2] above 30000 nM.
As for `Cc1cc(NC(=O)c2cc(C(=O)C(=O)NC(C)(C)C)n3c2COCC3)ccc1F` [Example 583, 6-(2-(tert-butylamino)-2-oxoacetyl)-N-(4-fluoro-3-methylphenyl)-3,4-dihydro-1H-pyrrolo[2,1-c][1,4]oxazine-8-carboxamide], the EC50 in data set [1] was below 50 nM. The CC50 at 7 days in data set [2] is above 30000 nM.
The like results for `O=C(NC1(CO)CCC1)C(=O)c1c(Cl)c(C(=O)Nc2ccc(F)c(F)c2)c2n1CCOC2` [Example 584, 7-chloro-N-(3,4-difluorophenyl)-6-(2-((1-(hydroxymethyl)cyclobutyl)amino)-2-oxoacetyl)-3,4-dihydro-1H-pyrrolo[2,1-c][1,4]oxazine-8-carboxamide] were, in that order, below 50 nM and 5000 to 30000 nM.
With `Cc1cc(NC(=O)c2cc(C(=O)C(=O)NC(C)(C)C)n3c2CN(C(=O)OC(C)(C)C)CC3)ccc1F` [Example 587, tert-butyl 6-(2-(tert-butylamino)-2-oxoacetyl)-8-((4-fluoro-3-methylphenyl)carbamoyl)-3,4-dihydropyrrolo[1,2-a]pyrazine-2(1H)-carboxylate], the EC50 in data set [1] fell in the range of 50 to 499 nM. The molecule further returned a CC50 at 7 days in data set [2] above 30000 nM.
For the molecule `Cc1cc(NC(=O)c2cc(C(=O)C(=O)NC(C)(C)C)n3c2CNCC3)ccc1F` [Example 588, 6-(2-(tert-butylamino)-2-oxoacetyl)-N-(4-fluoro-3-methylphenyl)-1,2,3,4-tetrahydropyrrolo[1,2-a]pyrazine-8-carboxamide], the EC50 in data set [1] lay within 50 to 499 nM. The molecule further came in with a CC50 at 7 days in data set [2] of 5000 to 30000 nM.
The like results for `Cc1cc(NC(=O)c2cc(C(=O)C(=O)NC(C)(C)C)n3c2CN(S(C)(=O)=O)CC3)ccc1F` [Example 589, 6-(2-(tert-butylamino)-2-oxoacetyl)-N-(4-fluoro-3-methylphenyl)-2-(methylsulfonyl)-1,2,3,4-tetrahydropyrrolo[1,2-a]pyrazine-8-carboxamide] were, in that order, 500 to 1000 nM and above 30000 nM.
For the molecule `CC(=O)N1CCn2c(C(=O)C(=O)NC(C)(C)C)cc(C(=O)Nc3ccc(F)c(C)c3)c2C1` [Example 590, 2-acetyl-6-(2-(tert-butylamino)-2-oxoacetyl)-N-(4-fluoro-3-methylphenyl)-1,2,3,4-tetrahydropyrrolo[1,2-a]pyrazine-8-carboxamide], in data set [1], the EC50 lay in the range of 500 to 1000 nM. Besides, the CC50 at 7 days in data set [2] was above 30000 nM.
For the molecule `Cc1cc(NC(=O)c2c(C)c(C(=O)C(=O)NC3(CN4CCOCC4)CCCC3)n(C)c2C)ccc1F` [Example 595, N-(4-fluoro-3-methylphenyl)-1,2,4-trimethyl-5-(2-((1-(morpholinomethyl)cyclopentyl)amino)-2-oxoacetyl)-1H-pyrrole-3-carboxamide], in data set [1], the EC50 was below 50 nM. Further, in data set [2], the CC50 at 7 days was above 30000 nM.
On to `Cc1cc(NC(=O)c2c(C)c(C(=O)C(=O)NC3(CN4CCOCC4)CCCCC3)n(C)c2C)ccc1F` [Example 596, N-(4-fluoro-3-methylphenyl)-1,2,4-trimethyl-5-(2-((1-(morpholinomethyl)cyclohexyl)amino)-2-oxoacetyl)-1H-pyrrole-3-carboxamide], for which the EC50 in data set [1] is below 50 nM. In addition, in data set [2], the CC50 at 7 days is above 30000 nM.
The like results for `Cc1cc(NC(=O)c2c(C)c(C(=O)C(=O)NC(C)(C)C(=O)N3CCC(O)CC3)n(C)c2C)ccc1F` [Example 597, N-(4-fluoro-3-methylphenyl)-5-(2-((1-(4-hydroxypiperidin-1-yl)-2-methyl-1-oxopropan-2-yl)amino)-2-oxoacetyl)-1,2,4-trimethyl-1H-pyrrole-3-carboxamide] were, in that order, below 50 nM and above 30000 nM.
As to `Cc1cc(NC(=O)c2c(C)c(C(=O)C(=O)NC3CC4(CC(O)C4)C3)n(C)c2C)ccc1F` (centres unmarked) [Example 598, N-(4-fluoro-3-methylphenyl)-5-(2-((6-hydroxyspiro[3.3]heptan-2-yl)amino)-2-oxoacetyl)-1,2,4-trimethyl-1H-pyrrole-3-carboxamide], the EC50 in data set [1] was below 50 nM. The same molecule came in with a cytotoxic concentration (CC50) at 7 days in data set [2] above 30000 nM.
With `Cc1cc(NC(=O)c2c(C)c(C(=O)C(=O)NC3(CO)CCCCC3)n(C)c2C)ccc1F` [Example 599, N-(4-fluoro-3-methylphenyl)-5-(2-((1-(hydroxymethyl)cyclohexyl)amino)-2-oxoacetyl)-1,2,4-trimethyl-1H-pyrrole-3-carboxamide], the concentration for a half-maximal effect (EC50) in data set [1] was below 50 nM. For the same molecule, the CC50 at 7 days in data set [2] is above 30000 nM.
As to `Cc1c(C(=O)Nc2cccc(Cl)c2)c(C)n(C)c1C(=O)C(=O)NC(C)(C)CO` [Example 600, N-(3-chlorophenyl)-5-(2-((1-hydroxy-2-methylpropan-2-yl)amino)-2-oxoacetyl)-1,2,4-trimethyl-1H-pyrrole-3-carboxamide], the EC50 in data set [1] was below 50 nM. Further, in data set [2], the CC50 at 7 days is above 30000 nM.
The like results for `Cc1c(C(=O)Nc2cccc(Cl)c2)c(C)n(C)c1C(=O)C(=O)NC(C)(C)CN1CCOCC1` [Example 601, N-(3-chlorophenyl)-1,2,4-trimethyl-5-(2-((2-methyl-1-morpholinopropan-2-yl)amino)-2-oxoacetyl)-1H-pyrrole-3-carboxamide] were, in that order, below 50 nM and above 30000 nM.
On to `Cc1c(C(=O)Nc2cccc(Cl)c2)c(C)n(C)c1C(=O)C(=O)N[C@H]1CC[C@@H](O)CC1` [Example 602, N-(3-chlorophenyl)-5-(2-(((1s,4s)-4-hydroxycyclohexyl)amino)-2-oxoacetyl)-1,2,4-trimethyl-1H-pyrrole-3-carboxamide], for which the EC50 in data set [1] is below 50 nM. The molecule also registered a cytotoxic concentration (CC50) at 7 days in data set [2] above 30000 nM.
